# Assay results as given in ChEMBL document CHEMBL6134905, “Double Swords in One: Novel Selective PI3K/110β PROTAC Degraders for the Treatment of Multidrug-Resistant Cancer by Activating ERS and Inhibiting P-gp” (J Med Chem, 2025).
# Activity calls are given as the source filed them. The calls are words filed in the database; no cut-off is given here. Residues, ends and D or L forms follow the SMILES beside them. *: point of attachment. Cbz = O=C(OCc1ccccc1)*; CH2F = FC*
# Columns and labels:
# MCF7 = assay: Antitumor activity against human MCF7 cells assessed as cell viability incubated for 24 hrs by MTT assay; type: functional, cell-based; conditions: MCF7, 24 h
# [1] = target: T1, von Hippel-Lindau disease tumor suppressor/Phosphatidylinositol 4,5-bisphosphate 3-kinase catalytic subunit beta isoform (Homo sapiens, UniProt P42338+P40337); assay: PROTAC activity at PI3K-p110beta/VHL in human MCF7/ADM cells assessed as reduction in PI3K-p110beta level at 25 uM measured for 24 hrs by Western blot analysis; type: cell-based
# [2] = target: T1, von Hippel-Lindau disease tumor suppressor/Phosphatidylinositol 4,5-bisphosphate 3-kinase catalytic subunit beta isoform; assay: PROTAC activity at PI3K-p110beta/VHL in human A549/DDP cells assessed as reduction in PI3K-p110beta level at 25 uM measured for 24 hrs by Western blot analysis; type: cell-based
# MCF7/ADM [3] = assay: Antitumor activity against human MCF7/ADM cells xenografted in BALB/c mouse assessed as reduction in tumor volume at 50 mg/kg, ip measured every 2 days; type: functional, organism-based; conditions: time 2.0 day
# [4] = Antitumor activity against human MCF7/ADM cells assessed as cell viability incubated for 24 hrs by MTT assay; type: functional, cell-based
# A549/CDDP [5] = assay: Antitumor activity against human A549/DDP cells assessed as cell viability incubated for 24 hrs by MTT assay; type: functional, cell-based
# [6] = target: T1, von Hippel-Lindau disease tumor suppressor/Phosphatidylinositol 4,5-bisphosphate 3-kinase catalytic subunit beta isoform; assay: PROTAC activity at PI3K-p110beta/VHL in human A549/DDP cells assessed as reduction in PI3K-p110beta mRNA level at 25 uM measured for 24 hrs by qRT-PCR analysis; type: cell-based
# A549 = assay: Antitumor activity against human A549 cells assessed as cell viability incubated for 24 hrs by MTT assay; type: functional, cell-based; conditions: A549, 24 h
# [7] = target: T1, von Hippel-Lindau disease tumor suppressor/Phosphatidylinositol 4,5-bisphosphate 3-kinase catalytic subunit beta isoform; assay: PROTAC activity at PI3K-p110beta/VHL in human MCF7/ADM cells assessed as reduction in PI3K-p110beta mRNA level at 25 uM measured for 24 hrs by qRT-PCR analysis; type: cell-based
# A549/CDDP [8] = assay: Activation of unfolded protein response in human A549/DDP cells at 25 uM incubated for 24 hrs by PROTEOSTATR aggresome dye based fluorescent microscopy; type: functional, cell-based
# MCF7/ADM [9] = assay: Induction of cell death in human MCF-7/ADM cells at 25 uM incubated for 24 hrs; type: functional, cell-based
# [10] = Induction of apoptosis in human MCF7/ADM cells at 25 uM incubated for 24 hrs by Annexin V-FITC/PI staining based flow cytometry analysis (reference value: 5.20%); type: functional
# A549/CDDP [11] = assay: Induction of apoptosis in human A549/DDP cells at 25 uM incubated for 24 hrs by Annexin V-FITC/PI staining based flow cytometry analysis (reference value: 4.27%); type: functional
# A549/CDDP [12] = assay: Induction of cell death in human A549/DDP cells at 25 uM incubated for 24 hrs; type: functional, cell-based
# [13] = target: T1, von Hippel-Lindau disease tumor suppressor/Phosphatidylinositol 4,5-bisphosphate 3-kinase catalytic subunit beta isoform; assay: PROTAC activity at PI3K-p110beta/VHL in human A549/DDP cells assessed as induction of PI3K-p110beta degradation at 2.5 uM incubated for 24 hrs by Western blot analysis; type: cell-based
# [14] = target: T1, von Hippel-Lindau disease tumor suppressor/Phosphatidylinositol 4,5-bisphosphate 3-kinase catalytic subunit beta isoform; assay: PROTAC activity at PI3K-p110beta/VHL in human MCF7/ADM cells assessed as induction of PI3K-p110beta degradation at 25 uM incubated for 24 hrs by Western blot analysis; type: cell-based
# [15] = target: T1, von Hippel-Lindau disease tumor suppressor/Phosphatidylinositol 4,5-bisphosphate 3-kinase catalytic subunit beta isoform; assay: PROTAC activity at PI3K-p110beta/VHL in human A549/DDP cells assessed as induction of PI3K-p110beta degradation at 25 uM incubated for 24 hrs by Western blot analysis; type: cell-based
# [16] = target: T1, von Hippel-Lindau disease tumor suppressor/Phosphatidylinositol 4,5-bisphosphate 3-kinase catalytic subunit beta isoform; assay: PROTAC activity at PI3K-p110beta/VHL in human MCF7/ADM cells assessed as induction of PI3K-p110beta degradation at 2.5 uM incubated for 24 hrs by Western blot analysis; type: cell-based
# T1 sequence (P40337 whole entry, looked up, canonical isoform): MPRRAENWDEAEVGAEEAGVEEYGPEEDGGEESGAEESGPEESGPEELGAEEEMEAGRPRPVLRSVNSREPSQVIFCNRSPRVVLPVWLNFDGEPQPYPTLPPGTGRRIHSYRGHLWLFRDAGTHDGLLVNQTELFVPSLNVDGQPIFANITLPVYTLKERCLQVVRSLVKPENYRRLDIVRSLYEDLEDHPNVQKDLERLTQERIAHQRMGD
# T1 sequence (P42338 whole entry, looked up, canonical isoform): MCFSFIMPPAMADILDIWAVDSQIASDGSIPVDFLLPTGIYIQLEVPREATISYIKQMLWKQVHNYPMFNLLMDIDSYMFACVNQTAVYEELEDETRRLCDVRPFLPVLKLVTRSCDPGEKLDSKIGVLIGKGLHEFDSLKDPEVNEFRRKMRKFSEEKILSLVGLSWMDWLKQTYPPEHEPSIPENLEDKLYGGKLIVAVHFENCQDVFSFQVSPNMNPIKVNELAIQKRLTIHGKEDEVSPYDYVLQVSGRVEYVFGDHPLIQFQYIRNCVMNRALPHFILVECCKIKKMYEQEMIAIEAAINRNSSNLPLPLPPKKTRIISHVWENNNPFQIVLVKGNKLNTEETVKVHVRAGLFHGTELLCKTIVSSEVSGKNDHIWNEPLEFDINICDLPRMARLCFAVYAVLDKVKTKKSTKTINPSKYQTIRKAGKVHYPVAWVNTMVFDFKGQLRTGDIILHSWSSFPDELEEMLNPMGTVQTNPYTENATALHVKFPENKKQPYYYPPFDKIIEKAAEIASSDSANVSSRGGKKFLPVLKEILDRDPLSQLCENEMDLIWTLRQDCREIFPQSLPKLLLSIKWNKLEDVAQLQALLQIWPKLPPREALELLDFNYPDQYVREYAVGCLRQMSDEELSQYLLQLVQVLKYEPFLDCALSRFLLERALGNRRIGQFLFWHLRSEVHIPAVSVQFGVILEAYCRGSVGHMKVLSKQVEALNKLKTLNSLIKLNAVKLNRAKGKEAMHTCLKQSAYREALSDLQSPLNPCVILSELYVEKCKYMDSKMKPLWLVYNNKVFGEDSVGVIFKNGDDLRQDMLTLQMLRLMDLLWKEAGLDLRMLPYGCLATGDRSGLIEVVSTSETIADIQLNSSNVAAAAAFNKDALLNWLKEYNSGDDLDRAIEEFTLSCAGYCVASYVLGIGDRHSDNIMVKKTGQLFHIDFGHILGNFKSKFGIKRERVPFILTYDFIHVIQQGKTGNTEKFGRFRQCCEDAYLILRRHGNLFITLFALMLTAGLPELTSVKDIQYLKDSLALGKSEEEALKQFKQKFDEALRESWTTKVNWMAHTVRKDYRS
Activity [13],Activity [14],Activity [15],Activity [16],Structure (SMILES),also measured
,,,,Cc1cc(C(C)Nc2ccccc2)c2nc(N3CCOCC3)cc(=O)n2c1 (configuration not stated),IC50 (MCF7): 75.1 µM; Activity [1]: inactive; Activity [2]: inactive; Activity (MCF7/ADM [3]): Active; IC50 [4]: 50.8 µM; IC50 (A549/CDDP [5]): 57.9 µM; Activity [6]: inactive; IC50 (A549): 88.3 µM; Activity [7]: Active
,,,,N#CSc1cc(SC#N)c(N)nc1N,Activity (A549/CDDP [8]): Active
,,,,C[C@H](CCC(=O)NCCS(=O)(=O)O)[C@H]1CC[C@H]2[C@@H]3[C@@H](O)C[C@@H]4C[C@H](O)CC[C@]4(C)[C@H]3CC[C@]12C [TAURURSODIOL],Activity (MCF7/ADM [9]): Active; Activity [10]: 21.48%; Activity (A549/CDDP [11]): 18.57%; Activity (A549/CDDP [12]): Active
Active,Active,Active,Active,Cc1cc(C(C)Nc2ccccc2C(=O)NCCCCCC(=O)N[C@H](C(=O)N2C[C@H](O)C[C@H]2C(=O)NCc2ccc(-c3scnc3C)cc2)C(C)(C)C)c2nc(N3CCOCC3)cc(=O)n2c1 (some centres not stated),
,,,,CC(C)[C@H](NC(=O)OCc1ccccc1)C(=O)N[C@@H](C)C(=O)N[C@@H](CC(=O)O)C(=O)CF (Cbz-Val-Ala-Asp-CH2F),Activity (MCF7/ADM [9]): Active; Activity (A549/CDDP [12]): Active
Active,Active,Active,Active,Cc1cc(C(C)Nc2ccccc2C(=O)NCCCCCCCC(=O)N[C@H](C(=O)N2C[C@H](O)C[C@H]2C(=O)NCc2ccc(-c3scnc3C)cc2)C(C)(C)C)c2nc(N3CCOCC3)cc(=O)n2c1 (some centres not stated),
Active,Active,Active,Active,Cc1cc(C(C)Nc2ccccc2C(=O)NCCCCCCCCCCC(=O)N[C@H](C(=O)N2C[C@H](O)C[C@H]2C(=O)NCc2ccc(-c3scnc3C)cc2)C(C)(C)C)c2nc(N3CCOCC3)cc(=O)n2c1 (some centres not stated),
,,,,O=c1cc(N2CCOCC2)oc2c(-c3ccccc3)cccc12,Activity (A549/CDDP [8]): Active
Active,Active,Active,Active,Cc1cc(C(C)Nc2ccccc2C(=O)NCCC(=O)N[C@H](C(=O)N2C[C@H](O)C[C@H]2C(=O)NCc2ccc(-c3scnc3C)cc2)C(C)(C)C)c2nc(N3CCOCC3)cc(=O)n2c1 (some centres not stated),
Active,Active,Active,Active,Cc1cc(C(C)Nc2ccccc2C(=O)NCCCC(=O)N[C@H](C(=O)N2C[C@H](O)C[C@H]2C(=O)NCc2ccc(-c3scnc3C)cc2)C(C)(C)C)c2nc(N3CCOCC3)cc(=O)n2c1 (some centres not stated),
